The results in this text go back to patent publication US7183267B2, “β-lactamase inhibitors and methods of use thereof” (priority 2003, dated 2007).

Where “and” joins values, the source holds several entries; their conditions need not be identical. Equal values may be shown once. Read-outs that look alike come from different tables or passages of the source.

In series [1] the target is β-lactamase R244S (Escherichia coli, UniProt P62593, R241S). Briefly: Isothermal titration calorimetry, binding enthalpy, R244S mutant. As for the experimental part:
(§1) The binding of the compounds of the present invention to β-lactamase was also measured by isothermal titration calorimetry.
(§2) These experiments, in combination with the inhibition assays, indicate that the compounds identified in this disclosure bind to the wild type as well as drug resistant beta lactamases with favorable binding enthalpies. This is a very important characteristic from the point of view of further optimization since it facilitates the achievement of extremely high affinities and low susceptibilities to drug resistant mutations and naturally occurring polymorphisms.
(§3) Isothermal titration calorimetry was performed on a high-precision VP-ITC titration calorimeter (Microcal Inc., Northampton, Mass.). β-Lactamase solutions were titrated with inhibitors in 50 mM sodium phosphate, 2% DMSO, pH 7.0, with β-lactamase concentrations ranging from 15 to 25 μM and inhibitor concentrations ranging from 300 to 1000 μM. The heat evolved from each injection was obtained by integrating the calorimetric signal. Heat of binding was obtained as the difference between the heat of reaction and the heat of inhibitor dilution. Data were analyzed using Origin 7.0 (OriginLab Corporation, Northampton, Mass.).
A general note: ITC needs no label: the signal is the heat of the interaction.

In series [2] the target is T1, TEM-1 β-lactamase (Escherichia coli, UniProt P62593). Nature of the series: Isothermal titration calorimetry, binding to TEM-1 β-lactamase (Example 17). Particulars: ITC. In short, it runs like this: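 TEM-1 β-lactamase (15–25 μM) titrated with inhibitor (300–1000 μM) in 50 mM sodium phosphate, 2% DMSO, pH 7.0. Integrated injection heats were corrected for inhibitor dilution heat to give binding heat.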

Series [3] deals with β-lactamase mutant R244S (Escherichia coli, UniProt P62593, R241S). It counts as biochemical. The conditions noted are these: number higher than 1 reflects a loss of potency against mutant. As for the experimental part:
(§4) The inhibition of TEM-1 β-lactamase was determined spectrophotometrically. B-lactamase activity was followed by measuring the hydrolysis of nitrocefin, [3-(2,4-dinitrostyryl)-(6R, 7R)-7-(2-thienylacetamido)-ceph-3-em-4-carboxylic acid, E-isomer], (Calbiochem, San Diego, Calif., USA) at 486 nm. Inhibition assays were performed at 25° C. in 50 mM sodium phosphate, 5% DMSO, pH 7.0. […] Inhibitor was added to the enzyme and incubated for ten minutes before the addition of substrate. Inhibition constants (Ki) for the inhibitors are obtained at the desired temperature and solvent conditions by measuring the rate of substrate hydrolysis at increasing amounts of inhibitors.
(§5) Three of the most important mutations are M69I, R244S and E104K.

For series [4], the target named is β-lactamase mutant M69I (Escherichia coli, UniProt P62593, M67I). It counts as biochemical. The conditions noted are these: number higher than 1 reflects a loss of potency against mutant. The procedure: as §4, §5
In series [5] the target is β-lactamase mutant E104K (Escherichia coli, UniProt P62593, E102K). It counts as biochemical. Particulars: number higher than 1 reflects a loss of potency against mutant. The procedure:
as §4, §5

Series [6] concerns the target β-lactamase M69I (Escherichia coli, UniProt P62593, M67I). Nature of the series: Isothermal titration calorimetry, binding enthalpy, M69I mutant. The procedure:
as §1, §2, §3

Series [7] deals with β-lactamase E104K (Escherichia coli, UniProt P62593, E102K). Briefly: Isothermal titration calorimetry, binding enthalpy, E104K mutant. As for the experimental part:
as §1, §2, §3

In series [8] the target is β-lactamase wt (Escherichia coli, UniProt P62593). Briefly: Isothermal titration calorimetry, binding enthalpy, wild type. The procedure: as §1, §2, §3
Series [9] deals with T1, TEM-1 β-lactamase. Briefly: TEM-1 β-lactamase inhibition assay (nitrocefin hydrolysis, 486 nm). It counts as biochemical. In short, it runs like this:
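TEM-1 activity followed by nitrocefin hydrolysis at 486 nm, 25 °C, 50 mM sodium phosphate pH 7.0, 5% DMSO; inhibitor preincubated with enzyme 10 min before substrate. Ki obtained from rates at increasing inhibitor concentrations fitted to competitive-inhibition equations; penicillin G also used as substrate for KM and kcat.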

In series [10] the target is T2, AmpC β-lactamase (Escherichia coli, UniProt P00811).
T2 construct: made in house; host or cells: E. coli BL21 (DE3)
T2 sequence (P00811 20-377): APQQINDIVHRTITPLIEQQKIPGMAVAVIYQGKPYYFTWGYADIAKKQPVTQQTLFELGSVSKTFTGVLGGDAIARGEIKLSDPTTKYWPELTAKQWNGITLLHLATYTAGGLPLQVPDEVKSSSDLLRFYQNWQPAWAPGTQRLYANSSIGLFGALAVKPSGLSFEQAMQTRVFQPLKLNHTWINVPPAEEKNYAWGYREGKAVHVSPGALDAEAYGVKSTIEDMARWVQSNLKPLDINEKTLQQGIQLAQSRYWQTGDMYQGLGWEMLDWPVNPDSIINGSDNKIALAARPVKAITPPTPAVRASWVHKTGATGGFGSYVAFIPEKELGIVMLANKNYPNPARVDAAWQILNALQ
Type of series: biochemical. Particulars: substrate hydrolysis by AmpC, 25° C., pH 7.0. The procedure:
The competitive inhibition of β-lactamase was determined spectrophotometrically using a Varian (Walnut Creek, Calif.) Cary 100 UV-Visible spectrophotometer. β-lactamase activity was followed by measuring the hydrolysis of nitrocefin, [3-(2,4-dinitrostyryl)-(6R, 7R)-7-(2-thienylacetamido)-ceph-3-em-4-carboxylic acid, E-isomer], (Calbiochem, San Diego, Calif.) at 486 nm. Inhibition assays were performed at 25° C. in 50 mM sodium phosphate, 5% DMSO, pH 7.0. […] Penicillin G (Sigma, St. Louis, Mo.) was also used as a substrate to determine KM and kcat.

Setting [11] is: Ki, 25° C., 50 mM sodium phosphate, 5% DMSO, pH 7.0, enzyme 5 nM, nitrocefin 167 μM.

The melting point is the temperature of the solid-liquid transition. For orientation: Ki means the equilibrium dissociation constant of an inhibitor or competing ligand from its target. In turn, `O=C(Oc1ccccc1[N+](=O)[O-])c1cc(B(O)O)cc([N+](=O)[O-])c1` [Compound (1b), 3-(2-Nitrophenoxycarbonyl)-5-nitrophenylboronic acid] returned a melting point of 128 to 130 °C. The “ΔH R244S” value in [1] was -9.5 kcal/mol. Besides, in series [2], the ΔG is -6.42 kcal/mol, the ΔH was -4.011 kcal/mol and the “−TΔS” value was -2.409 kcal/mol. For the same compound, in [3], the “Loss of potency: ratio of the inhibitory constant between mutant and wild type (Potencywt/Potencymutant), R244S” value was found to be 1.2. Further, in series [4], the “Loss of potency: ratio of the inhibitory constant between mutant and wild type (Potencywt/Potencymutant), M69I” value worked out at 1.0. Also, in series [5], the “Loss of potency: ratio of the inhibitory constant between mutant and wild type (Potencywt/Potencymutant), E104K” value amounted to 0.92. In addition, the “ΔH M69I” value in series [6] was -2 kcal/mol. Also, in [7], the “ΔH E104K” value is -3.9 kcal/mol. Further, the ΔH wt in [8] is -3.8 kcal/mol. In addition, in series [9] (Ki from Lineweaver-Burke Analysis, values in parenthesis, Lineweaver-Burke analysis), the Ki amounted to 1.18 µM. For the same compound, the inhibitory constant (Ki) in [9] (setting [11]) is 12 ± 3 µM. The affinity in [9] (Ki, TEM-1 β-lactamase), expressed as Ki, was 12 µM.
In general, kcat refers to the number of substrate molecules converted per active site and unit of time at saturation. Broadly, the Km is the concentration of substrate that gives half-maximal velocity. Consider `CC1(C)S[C@@H]2[C@H](NC(=O)Cc3ccccc3)C(=O)N2[C@H]1C(=O)O` [penicillin G, Penicillin G], for which the kcat in series [10] came out at 198 ± 4 s⁻¹. In addition, the Km in series [10] (read-out: KM) is 28 ± 3 µM.
For `O=C(Cc1cccs1)N[C@@H]1C(=O)N2C(C(=O)O)=C(/C=C/c3ccc([N+](=O)[O-])cc3[N+](=O)[O-])CS[C@H]12` [nitrocefin, 3-(2,4-dinitrostyryl)-(6R, 7R)-7-(2-thienylacetamido)-ceph-3-em-4-carboxylic acid, E-isomer], in series [10], the Michaelis-Menten constant (Km) is 250 µM and 253 µM; the kcat is 975 s⁻¹ and 976 ± 46 s⁻¹.
As for `O=C(Oc1cccc([N+](=O)[O-])c1)c1cc(B(O)O)cc([N+](=O)[O-])c1` [Compound (1c), 3-(3-Nitrophenoxycarbonyl)-5-nitrophenylboronic acid], the melting point lay within 185 to 187 °C. In series [3], the “Loss of potency: ratio of the inhibitory constant between mutant and wild type (Potencywt/Potencymutant), R244S” value is listed as 0.52. Moreover, the “Loss of potency: ratio of the inhibitory constant between mutant and wild type (Potencywt/Potencymutant), M69I” value in series [4] was 1.0. The “Loss of potency: ratio of the inhibitory constant between mutant and wild type (Potencywt/Potencymutant), E104K” value in series [5] stood at 0.56. This compound returned a Ki in [9] (setting [11]) of 39 ± 7 µM.
